The source of these data is ChEMBL document CHEMBL5046280, “Discovery of Small-Molecule Inhibitors of the PD-1/PD-L1 Axis That Promote PD-L1 Internalization and Degradation” (J Med Chem, 2022).

Data set [1] concerns the target Programmed cell death protein 1/Programmed cell death 1 ligand 1 (Homo sapiens, UniProt Q9NZQ7). Briefly: Inhibition of PD-1/PD-L1 (unknown origin) interaction pre-incubated for 15 mins and measured after 90 mins by TR-FRET assay. It counts as protein-complex assay. (In general: TR-FRET usually uses a lanthanide donor and a delayed reading to cut background.)
Data set [2] deals with B16-F10. Briefly: Antitumor activity against mouse B16-F10 cells implanted in […] mouse assessed as decrease in nucleus to cytoplasm interaction in tumor cells at 40 to 160 mg/kg, po administered once daily for 2 weeks in presence of PD-L1 antibody by H and E staining based assay. Format: functional, organism-based. The note with it: dose 40-160 mg/kg.
The subject of data set [3] is CT26. Briefly: Antitumor activity against po dosed mouse CT26 cells implanted in BALB/c mouse assessed as tumor growth delay treated once daily for 2 weeks. The settings on record: dose 40-160 mg/kg. It counts as functional, organism-based.
The subject of data set [4] is CT26. Briefly: Antitumor immunity activity against mouse CT26 cells implanted in BALB/c mouse assessed as upregulation of IFN-gamma mRNA at 160 mg/kg, po administered once daily for 2 weeks by qRT-PCR analysis. It counts as functional, organism-based. On the technique in general: Quantitative PCR measures a nucleic acid by following its amplification.
Data set [5] can be described thus: Toxicity in BALB/c mouse harbouring mouse CT26 cells assessed as mortality at 40 to 120 mg/kg, po administered once daily for 2 weeks. Format: organism-based. The settings on record: in vivo, 336 h, dose 40-120 mg/kg.
The subject of data set [6] is CT26. Briefly: Antitumor activity against mouse CT26 cells implanted in BALB/c mouse assessed as reduction in tumor weight at 160 mg/kg, po administered once daily for 2 weeks. It counts as functional. More on the design: scale not given: the % may be the effect or the level left.
For data set [7], the target named is Programmed cell death 1 ligand 1 (Mus musculus, UniProt Q9EP73). Briefly: Binding affinity to mouse PD-L1 assessed as dissociation constant by micro-scale thermophoresis analysis.
Sequence of Programmed cell death 1 ligand 1 (Mus musculus, UniProt Q9EP73) (Q9EP73 whole entry): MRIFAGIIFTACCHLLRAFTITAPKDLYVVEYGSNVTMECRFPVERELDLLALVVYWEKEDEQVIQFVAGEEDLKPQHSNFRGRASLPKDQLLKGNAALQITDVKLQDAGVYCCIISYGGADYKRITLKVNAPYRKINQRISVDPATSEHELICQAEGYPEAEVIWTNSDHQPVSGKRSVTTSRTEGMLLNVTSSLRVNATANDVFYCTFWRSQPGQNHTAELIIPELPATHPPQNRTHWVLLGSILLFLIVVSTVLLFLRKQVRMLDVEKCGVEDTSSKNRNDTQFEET
The subject of data set [8] is CT26. Briefly: Antitumor activity against mouse CT26 cells implanted in BALB/c mouse assessed as inhibition of tumor cell growth in tumor tissue at 40 to 160 mg/kg, po administered once daily for 2 weeks by H and E staining based assay. It counts as functional, organism-based. The note with it: dose 40-160 mg/kg.
Data set [9] relates to CT26. Briefly: Antitumor immunity activity against mouse CT26 cells implanted in BALB/c mouse assessed as upregulation of CXCL9 mRNA at 160 mg/kg, po administered once daily for 2 weeks by qRT-PCR analysis. Format: functional, organism-based.
The subject of data set [10] is CT26. Briefly: Antitumor activity against mouse CT26 cells implanted in BALB/c mouse assessed as reduction in tumor weight at 40 mg/kg, po administered once daily for 2 weeks. More on the design: scale not given: the % may be the effect or the level left. It counts as functional.
Data set [11] relates to CT26. Briefly: Antitumor activity against mouse CT26 cells implanted in BALB/c mouse assessed as increase in infiltration of CD8+ T cells level in tumor tissue po administered once daily for 2 weeks by flow cytometry. It counts as functional, organism-based. The settings on record: dose 40-160 mg/kg. On the technique in general: Flow cytometry measures light scatter and fluorescence of single cells or particles in a stream.

Data set [12] deals with CT26. Briefly: Antitumor activity against mouse CT26 cells implanted in BALB/c mouse assessed as downregulation of human PD-L1 expression in tumor tissue at 80 mg/kg per day, po administered once daily for 2 weeks by Western blotting analysis. It counts as functional, organism-based.
Data set [13] addresses Programmed cell death 1 ligand 1 (Homo sapiens, UniProt Q9NZQ7). Briefly: Binding affinity to human PD-L1 assessed as dissociation constant by micro-scale thermophoresis analysis.
Data set [14] deals with CT26. Briefly: Antitumor activity against mouse CT26 cells implanted in BALB/c mouse assessed as upregulation of human PD-L1 expression in tumor tissue at 40 mg/kg per day, po administered once daily for 2 weeks by Western blotting analysis. Format: functional, organism-based.
Data set [15] relates to B16-F10. Briefly: Antitumor activity against mouse B16-F10 cells implanted in […] mouse assessed as increase in infiltration of CD8+ T cells level in tumor tissue at 40 to 160 mg/kg,po administered once daily for 2 weeks in presence of PD-L1 antibody by flow cytometry. It counts as functional, organism-based. The note with it: dose 40-160 mg/kg.
Data set [16] deals with CT26. Briefly: Antitumor activity against mouse CT26 cells implanted in BALB/c mouse assessed as downregulation of human PD-Ll expression in tumor tissue at 160 mg/kg per day, po administered once daily for 2 weeks by Western blotting analysis. It counts as functional, organism-based.
For data set [17], the system named is B16-F10. Briefly: Antitumor activity against mouse B16-F10 cells implanted in […] mouse assessed as decrease in nucleus to cytoplasm interaction in tumor cells at 40 to 160 mg/kg,po administered once daily for 2 weeks by H and E staining based assay. It counts as functional, organism-based. The settings on record: dose 40-160 mg/kg.
Data set [18] has as its system CT26. Briefly: Antitumor immunity activity against mouse CT26 cells implanted in BALB/c mouse assessed as upregulation of CXCL10 mRNA at 160 mg/kg, po administered once daily for 2 weeks by qRT-PCR analysis. Format: functional, organism-based.
In data set [19] the test system is B16-F10. Briefly: Antitumor activity against po dosed mouse B16-F10 cells implanted in […] mouse assessed as inhibition of tumor volume in presence of PD-L1 antibody administered once daily for 2 weeks. The settings on record: dose 40-160 mg/kg. Format: functional, organism-based.
Data set [20] has as its system B16-F10. Briefly: Antitumor immunity activity against mouse B16-F10 cells implanted in […] mouse assessed as increase level of IFN-gamma mRNA at 40 to 160 mg/kg, po administered once daily for 2 weeks in presence of PD-L1 antibody by […]. It counts as functional, organism-based. The settings on record: dose 40-160 mg/kg.
The subject of data set [21] is B16-F10. Briefly: Antitumor activity against mouse B16-F10 cells implanted in […] mouse assessed as inhibition of tumor volume at 80 mg/kg, po administered once daily for 2 weeks in presence of PD-L1 antibody. Format: functional, organism-based.
Data set [22] concerns B16-F10. Briefly: Antitumor activity against mouse B16-F10 cells implanted in […] mouse assessed as inhibition of tumor volume at 160 mg/kg, po administered once daily for 2 weeks. It counts as functional, organism-based.
In data set [23] the test system is B16-F10. Briefly: Antitumor immunity activity against mouse B16-F10 cells implanted in […] mouse assessed as increase level of IFN-gamma level in tumor tissue at 40 to 160 mg/kg, po administered once daily for 2 weeks by flow cytometry. Format: functional, organism-based. The settings on record: dose 40-160 mg/kg.
Data set [24] has as its system B16-F10. Briefly: Antitumor activity against mouse B16-F10 cells implanted in […] mouse assessed as decrease in human PD-Ll expression in tumor at 80 mg/kg, po administered once daily for 2 weeks in presence of PD-L1 antibody by Western blotting analysis. Format: functional, organism-based.
For data set [25], the system named is CT26. Briefly: Antitumor activity against mouse CT26 cells implanted in BALB/c mouse assessed as reduction in tumor weight at 80 mg/kg, po administered once daily for 2 weeks. It counts as functional. Also noted: scale not given: the % may be the effect or the level left.
The test system of data set [26] is B16-F10. Briefly: Antitumor activity against po dosed mouse B16-F10 cells implanted in […] mouse assessed as increase in infiltration of CD8+ T cells level in tumor tissue administered once daily for 2 weeks by flow cytometry. It counts as functional, organism-based. The settings on record: dose 40-160 mg/kg.
In the next data set the test system is MDA-MB-231. Briefly: Antitumor immunity against human MDA-MB-231 cells co-cultured with CD3/CD28/CD2 T cell activator stimulated human PMBC assessed as tumor cell viability measuring lactate dehydrogenase release measured for 14 hrs by PBMC killing assay relative to control. It counts as functional, cell-based.
The nature of data set [27]: Toxicity in BALB/c mouse harbouring mouse CT26 cells assessed as change in body weight at 40 to 120 mg/kg, po administered once daily for 2 weeks. It counts as organism-based. The note with it: in vivo, 336 h, dose 40-120 mg/kg.

The structures appear in SMILES notation. pIC50, pKd: −log10 of the molar value. Activity calls are given as the source filed them. No cut-off for these calls is given here.

Sequence of Programmed cell death protein 1/Programmed cell death 1 ligand 1 (Q15116 whole entry): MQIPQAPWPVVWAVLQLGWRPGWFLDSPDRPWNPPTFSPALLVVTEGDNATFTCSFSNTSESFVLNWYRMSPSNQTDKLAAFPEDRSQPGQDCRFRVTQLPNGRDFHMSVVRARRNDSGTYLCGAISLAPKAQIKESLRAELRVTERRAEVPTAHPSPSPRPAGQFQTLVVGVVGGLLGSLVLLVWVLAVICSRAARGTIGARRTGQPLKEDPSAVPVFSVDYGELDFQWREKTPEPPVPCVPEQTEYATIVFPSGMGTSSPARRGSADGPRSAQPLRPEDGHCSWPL
Sequence of Programmed cell death protein 1/Programmed cell death 1 ligand 1 (Q9NZQ7 whole entry): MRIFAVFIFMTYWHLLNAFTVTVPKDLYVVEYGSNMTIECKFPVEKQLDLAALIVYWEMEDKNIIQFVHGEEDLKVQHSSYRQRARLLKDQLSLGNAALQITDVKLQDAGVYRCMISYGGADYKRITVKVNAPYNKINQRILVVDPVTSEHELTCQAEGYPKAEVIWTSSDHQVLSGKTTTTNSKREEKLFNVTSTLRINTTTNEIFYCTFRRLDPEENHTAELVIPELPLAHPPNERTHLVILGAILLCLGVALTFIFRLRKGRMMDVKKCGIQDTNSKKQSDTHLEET
Sequence of Programmed cell death 1 ligand 1 (Homo sapiens, UniProt Q9NZQ7) (Q9NZQ7 whole entry): as above

For `Cc1c(-c2ccccc2)cccc1-c1nnc(Nc2ccc(CNCCO)cc2)o1`, the pIC50 (commonly the IC50 on a negative log10 scale, so that one unit is a factor of ten) in data set [1] is 3.13.

On to `COc1ccc(Nc2nnc(-c3ccc([N+](=O)[O-])cc3)o2)cc1`, for which the pIC50 in [1] was 4.19.

The compound `COc1ccc(Nc2nnc(-c3cccc(-c4ccccc4)c3C)o2)cc1` showed a pIC50 in data set [1] of 5.58.

In turn, `Cc1c(-c2ccccc2)cccc1-c1nnc(Nc2cccc(CN3CCOCC3)c2)o1` had a pIC50 in data set [1] of 4.19.

For the compound `Cc1c(-c2ccccc2)cccc1-c1nnc(Nc2cccc(CNCC(=O)O)c2)o1`, the pIC50 in [1] is 4.61.

For the compound `Cc1c(-c2ccccc2)cccc1-c1nnc(Nc2cccc(CNCCCO)c2)o1`, the pIC50 in [1] is 4.25.

Compound `CC(=O)NCCNCc1ccc(Nc2nnc(-c3cccc(-c4ccccc4)c3C)o2)cc1` gave a pIC50 in data set [1] of 2.74.

Consider `Cc1c(-c2ccccc2)cccc1-c1nnc(Nc2ccc(CNCC(=O)O)cc2)o1`, for which the pIC50 in data set [1] is 3.29.

In [1], `Cc1c(-c2ccccc2)cccc1-c1nnc(Nc2cccc(CNCCN)c2)o1` gave a pIC50 of 3.82.

Turning to `Cc1c(-c2ccccc2)cccc1-c1nnc(Nc2cccc(CNCCO)c2)o1`, the outcome in the data set on B16-F10 [2], with CT26 [4], in the data set with CT26 [9], in the data set on CT26 [12], in the data set with CT26 [16] and in the data set on B16-F10 [17] was Active. Moreover, the outcome in the data set on CT26 [18], in the data set with B16-F10 [20], in the data set on B16-F10 [21], in the data set with B16-F10 [22], in the data set with B16-F10 [23] and in the data set with B16-F10 [24] was Active. Further, in the data set with MDA-MB-231, the outcome was Active. Further, the Activity entry with CT26 [3] is “Dose-Dependent Effect”; in [5] it was “Non-Toxic”; in the data set with CT26 [6], 75%; in the data set on CT26 [8], “Dose-Dependent Effect”; in the data set on CT26 [10], 45%; in the data set on CT26 [11], “Dose-Dependent Effect”. Moreover, the Activity result with B16-F10 [15] was “Dose-Dependent Effect”; with B16-F10 [19], “Dose-Dependent Effect”; in the data set with CT26 [25] it was 55%; in the data set on B16-F10 [26], “Dose-Dependent Effect”; in data set [27] it was “Non-Toxic”. Also, the pKd – broadly, the Kd on a negative log10 scale, so that one unit is a factor of ten – was 6.32 in [7] and 7.60 in [13]. The compound further gave a pIC50 in [1] of 4.56. For the same compound, in the data set on CT26 [14], the outcome was inactive.

`Cc1c(-c2ccccc2)cccc1-c1nnc(Nc2cccc(CN(C)CCO)c2)o1`: in data set [1], the pIC50 was 4.17.

`CC(=O)NCCNCc1cccc(Nc2nnc(-c3cccc(-c4ccccc4)c3C)o2)c1` had a pIC50 in data set [1] of 4.47.

As to `Cc1c(-c2ccccc2)cccc1-c1nnc(Nc2cccc(CN3CC[C@@H](O)C3)c2)o1`, the pIC50 in data set [1] was 4.33.

Turning to `COc1ccc(Nc2nnc(-c3ccc(-c4ccccc4)c(C)c3)o2)cc1`, in [1], the pIC50 was < 4.00.

As for `Cc1c(-c2ccccc2)cccc1-c1nnc(Nc2cccc(CN[C@H](C)CO)c2)o1`, in data set [1], the pIC50 is 4.15.
